pIC50: −log10 of the molar value.

Assay [1] concerns mTOR markers p-S6 and p-4EBP1. Put plainly: mTOR inhibition: expression of mTOR markers. Conditions: MDA-MB-231 cells, 1 μM, 6 hours. In kind it is cell-based.
Assay [2] deals with MDA-MB-231 cells. Kind of assay: PARP cleavage assay (Western blotting), MDA-MB-231. It counts as cell-based. As to conditions: 6 hours. The source says: (§1) Compound 1a had no effect under the same conditions (FIG. 1A). […] Compound 1a, 28a, 47a, 48a, 73a, 39a, 70a, 103a, 89a and 88a had no effect under the same conditions (FIG. 3B-C).
Assay [3] relates to Nur77 interaction with Bcl-2. Put plainly: Confocal microscopy colocalization of Nur77 with Bcl-2. In kind it is cell-based.
In assay [4] the test system is MDA-MB-231 cancer cells. Kind of assay: Cell viability (MTT) assay, MDA-MB-231. It counts as cell-based. As to conditions: Homo sapiens; inhibiting the growth of MDA-MB-231 cancer cells, cell viability assay (Table 6). As for the experimental part: (§2) Cell viability was analyzed by using a colorimetric 3-(4,5-dimethylthiazol-[…]2-yl)-2,5-diphenyletetrazolium Bromide (MTT) assay that determines mitochondrial dehydrogenase activities in the living cells with a colorimetric method. Cells treated with test compounds were incubated with MTT and their effect on the viability of the cells was assayed by the ability of treated cells to reduce the yellow tetrazolium dye MTT to its insoluble formazan, which has a purple color. […]

Assay [5] relates to PyMT mammary tumor. Put plainly: MMTV-PyMT mice breast cancer model. It counts as in vivo. As for the experimental part: Female MMTV-PyMT mice of 12 weeks old were randomly divided into two groups (n=7 each), treated with a daily oral dose of test compound for 18 days. Standard histopathological analysis of tumor tissue was performed (see Example A-19). Test compounds were dissolved in DMSO and diluted with normal saline containing 5.0% (V/V) Tween-80 to a final concentration 0.5 mg/ml. Normal saline with DMSO and 5.0% Tween-80 was employed as the vehicle control.
4 μm thick sections were deparaffinized and rehydrated using xylene and a graded series of ethanol (100, 95, 85, 75, 50%), followed by washing in PBS. Antigen retrieval was performed in 10 mM sodium citrate buffer (pH 6.0), which was microwaved at 100° C. for 20 minutes. After rinsed twice in PBS, sections were blocked at room temperature for 1 hour by using 10% normal goat serum, followed by incubation with anti-ki-67, anti-cleaved-caspase-3, overnight (at least 17 hours) at 4° C. Colors were developed with a DAB horseradish peroxidase color development kit.

Assay [6] concerns HCT116 cancer cells. Put plainly: Cell viability (MTT) assay, HCT116. It counts as cell-based. Conditions: Homo sapiens, HCT-116; inhibiting the growth of HCT116 cancer cells, cell viability assay (Table 5). As for the experimental part: as §2
Assay [7] relates to Nur77. Kind of assay: Cellular fractionation and immunostaining: mitochondrial targeting of Nur77. It counts as cell-based. As to conditions: immunostaining. As for the experimental part:
(§3) For cellular fractionation, cells were lysed in cold buffer A (10 mM HEPES-KOH (pH 7.9), 1.5 mM MgCl2, 10 mM KCl, 0.5 mM dithiothreitol) with a cocktail of proteinase inhibitors on ice for 10 min as described. Cytoplasmic fraction was collected by centrifuging at 6000 rpm for 30 seconds. Pellets containing nuclei were resuspended in cold high-salt buffer C (20 mM HEPES-KOH (pH 7.9), 25% glycerol, 420 mM NaCl, 1.5 mM MgCl2, 0.2 mM EDTA, 0.5 mM dithiothreitol) with a cocktail of proteinase inhibitors on ice for 30 minutes.

For assay [8], the target named is T1, Nur77 (Homo sapiens, UniProt P22736).
T1 construct: expressed in transfected cells
T1 sequence (P22736 whole entry): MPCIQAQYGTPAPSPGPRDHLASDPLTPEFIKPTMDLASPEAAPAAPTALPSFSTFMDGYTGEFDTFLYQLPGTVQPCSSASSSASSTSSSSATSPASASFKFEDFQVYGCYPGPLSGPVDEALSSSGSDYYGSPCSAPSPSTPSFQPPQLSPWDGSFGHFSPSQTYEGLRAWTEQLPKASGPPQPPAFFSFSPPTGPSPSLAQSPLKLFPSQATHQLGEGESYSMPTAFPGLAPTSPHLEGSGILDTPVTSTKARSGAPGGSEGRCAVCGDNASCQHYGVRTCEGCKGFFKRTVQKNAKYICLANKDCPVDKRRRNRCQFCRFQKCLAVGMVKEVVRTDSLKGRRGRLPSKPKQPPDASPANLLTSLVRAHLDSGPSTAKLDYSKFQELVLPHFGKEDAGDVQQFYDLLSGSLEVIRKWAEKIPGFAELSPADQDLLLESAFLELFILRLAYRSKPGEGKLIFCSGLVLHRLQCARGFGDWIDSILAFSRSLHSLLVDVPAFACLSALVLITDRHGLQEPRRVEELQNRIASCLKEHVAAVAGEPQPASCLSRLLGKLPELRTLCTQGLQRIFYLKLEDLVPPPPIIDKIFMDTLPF
The assay is described as above. In kind it is cell-based. Conditions: mitochondria fractionation, 1μM. The method, then: as §3

In assay [9] the test system is Nur77 interaction with Bcl-2. Put plainly: Cell-based co-immunoprecipitation of Nur77 and Bcl-2. As to conditions: Nur77 transfected in HeLa cells. The method, then:
Western blotting and co-immunopreciptations (co-IP) were performed. Briefly, cells transfected with or without expression vectors for Nur77 and Bcl-2 were treated with test compounds for 2 hours. The effect of compounds on the interaction of endogenous or transfected Nur77 and Bcl-2 was analyzed by co-immunoprecipitation using appropriate antibodies. Proteins immunoprecipitated from cells by an appropriate anti-Nur77 or anti-Bcl-2 antibody were analyzed by Western blotting.

The test system of assay [10] is HCT116 cells. Kind of assay: PARP cleavage assay (Western blotting), HCT116. In kind it is cell-based. As to conditions: 0.5 μM, 6 hours, Western blotting.
Excerpt: as §1

The subject of assay [11] is Nur77 and pBind-RXRa-LBD-E453,6A. Put plainly: Mammalian one hybrid assay, RXRa-LBD/E453,6A mutant with Nur77. It counts as cell-based. As to conditions: cells transfected with Nur77 and pBind-RXRa-LBD-E453,6A. The method, then: (§4) HEK293T cells were co-transfected with pG5 Luciferase reporter together with the plasmid encoding RXRa-LBD fused with the Gal4 DNA-binding domain and other expression plasmids. After transfection, cells were treated with DMSO or a test compound, and assayed by using the Dual-Luciferase Reporter Assay System (Promega). Transfection efficiency was normalized to Renilla luciferase activity.
(§5) To exclude the possibility that Compound 1 acted on RXRa, Glu453 and Glu456 in the RXRa activation function 2 (AF2) region were substituted with Ala and the resulting mutant, RXRa-LBD/E453,6A, was used.

Assay [12] concerns pBind-RXRa-LBD and Nur77. Kind of assay: Mammalian one hybrid assay, Gal4-RXRa-LBD with Nur77. In kind it is cell-based. Conditions: cotransfection of pBind-RXRa-LBD and Nur77, Dual-Luciferase (FIG. 10). The method, then:
as §4, §5

Assay [13] concerns HCT116 cancer cells. Put plainly: Apoptosis assay, Annexin V-FITC/propidium iodide flow cytometry. It counts as cell-based. Conditions: Homo sapiens, HCT-116, 6 hours, Annexin V-FITC/PI flow cytometry (Table 4). The method, then: HCT116 cancer cells plated at a density of 1×10^6 per well on six-well plates were treated with different concentration of test compounds for 6 hours, and then the suspension and the adherent cells were collected, stained with Annexin V-FITC for 15 minutes and with propodium iodide for 5 minutes, and analyzed immediately by cytoFLEX Flow Cytometry System (Beckman-Coulter, Miami, Fla., USA) using FITC and PC5.5 (Table 4).

On to `Cn1cc([C+](c2ccc(C(F)(F)F)cc2)c2c[nH]c3ccccc23)c2ccccc21` [Compound 28, (1-Methyl-1H-indol-3-yl)(1H-indol-3-yl)(4-(trifluoromethyl)phenyl)methylium methanesulfonate], for which, in assay [1], the “expression levels of mTOR markers p-S6 and p-4EBP1” value is recorded as “reduced the expression levels”. In addition, the PARP cleavage result in assay [2] (0.5 μM) is “effectively induced PARP cleavage”; in assay [2] (1 μM) it was “effectively induce PARP cleavage”. Besides, in assay [3], the “colocalization of transfected GFP-Nur77 (and GFP-Nur77-LBD) with Bcl-2” value was “promoted extensive colocalization”. Also, the pIC50 in [4] and in assay [6] was > 6.30 throughout. The “expression levels of mTOR markers p-S6 and p-mTOR in tumor” value in assay [5] (3 mg/kg) is “markedly reduced”. Besides, the “growth of PyMT mammary tumor” value in assay [5] (3 mg/kg daily oral, 18 days) is “inhibited the growth of PyMT mammary tumor”. For the same molecule, the “Myc-Nur77-LBD colocalization with mitochondria” value in assay [7] is “colocalized extensively with the mitochondria”. Besides, the “Myc-Nur77 in heavy membrane (HM) fraction” value in assay [8] is “accumulated in the mitochondria-enriched heavy membrane (HM) fraction”. Also, the “Nur77 interaction with Bcl-2 (Co-IP)” value in assay [9] is recorded as “interacted with Bcl-2”.

With `CCCn1cc([C+](c2ccc(C(F)(F)F)cc2)c2c[nH]c3ccccc23)c2ccccc21.[Cl-]` [Compound 48, (1-Propyl-1H-indol-3-yl)(1H-indol-3-yl)(4-(trifluoromethyl)phenyl)methylium chloride], the “expression levels of mTOR markers p-S6 and p-4EBP1” value in assay [1] is recorded as “reduced the expression levels”. Moreover, the PARP cleavage entry was “effectively induced PARP cleavage” in assay [2] (0.5 μM) and “effectively induce PARP cleavage” in assay [2] (1 μM). The pIC50 in assay [4] and in assay [6] was > 6.30 each time.

For the molecule `FC(F)(F)c1ccc(C(c2c[nH]c3ccccc23)c2c[nH]c3ccccc23)cc1` [Compound 1a, reference compound], the PARP cleavage entry in [10] and in assay [2] (0.5 μM) was “no effect” throughout. The pIC50 in assay [4] and in assay [6] was ≤ 5.30 each time.

For the molecule `CC1=C(/C=C/C(C)=C\C=C\C(C)=C\C(=O)O)C(C)(C)CCC1` [Compound 9-cis-RA, 9-cis-RA, reference compound], the figures for the reporter transcriptional activity result in [11] and in assay [12] were “failed to induce the reporter activity” and “strongly activate”, respectively.

As for `Clc1ccc([C+](c2c[nH]c3ccccc23)c2c[nH]c3ccccc23)cc1` [Compound 5, Bis(1H-indol-3-yl)(4-chlorophenyl)methylium methanesulfonate], the pIC50 in [6] and in assay [13] was > 6.30 in each case.

Turning to `COC(=O)c1ccc([C+](c2c[nH]c3ccccc23)c2c[nH]c3ccccc23)cc1` [Compound 8, Bis(1H-indol-3-yl)(4-(methoxycarbonyl)phenyl)methylium methanesulfonate], the pIC50 in [6] and in assay [13] was > 6.30 throughout.

For the molecule `O=C(O)c1ccc([C+](c2c[nH]c3ccccc23)c2c[nH]c3ccccc23)cc1` [Compound 82, Bis(1H-indol-3-yl)(4-carboxyphenyl)methylium methanesulfonate], the pIC50 in assay [6] and in assay [13] was 5.30 to 6.30 each time.

For `COc1ccc([C+](c2c[nH]c3ccccc23)c2c[nH]c3ccccc23)cc1` [Compound 7, Bis(1H-indol-3-yl)(4-methoxyphenyl)methylium methanesulfonate], the pIC50 in assay [6] and in [13] was 5.30 to 6.30 throughout.

Take `Fc1ccc2[nH]cc([C+](c3ccc(C(F)(F)F)cc3)c3c[nH]c4ccccc34)c2c1.[Cl-]` [Compound 73, (5-Fluoro-1H-indol-3-yl)(1H-indol-3-yl)(4-(trifluoromethyl)phenyl)methylium chloride]: the “expression levels of mTOR markers p-S6 and p-4EBP1” value in [1] is recorded as “reduced the expression levels”. Also, the figures for the PARP cleavage result in assay [2] (0.5 μM) and in [2] (1 μM) were “effectively induced PARP cleavage” and “effectively induce PARP cleavage”, respectively. In addition, the pIC50 in [4] and in [6] was > 6.30 each time.

As to `FC(F)(F)Oc1ccc([C+](c2c[nH]c3ccccc23)c2c[nH]c3ccccc23)cc1.[Cl-]` [Compound 39, Bis(1H-indol-3-yl)(4-(trifluoromethoxy)phenyl)methylium chloride], the “expression levels of mTOR markers p-S6 and p-4EBP1” value in [1] was “reduced the expression levels”. For the same molecule, the PARP cleavage result in [2] (0.5 μM) is on record as “effectively induced PARP cleavage”; in [2] (1 μM) it was “effectively induce PARP cleavage”. Moreover, the pIC50 in assay [4] and in assay [6] was 5.30 to 6.30 throughout.

For the origin of these results see patent publication US20210024499A1, “OXIDIZED BIS(3-INDOLYL)METHANES AND USES THEREOF” (Sanford Burnam Prebys Medical Discovery Institute, priority 2018, published 2021).
